Laboratory results taken from ChEMBL document CHEMBL5543067, “Advances in nitric oxide regulators for the treatment of ischemic stroke” (Eur J Med Chem, 2023).
pIC50, pKi: −log10 of the molar value. ≈ marks a conversion by molar mass, not a printed value.

Legend:
[1] = system: Platelet; test: Inhibition of AA-induced platelet aggregation in New Zealand White rabbit; format: functional, cell-based; details: Oryctolagus cuniculus
[2] = system: Platelet; test: Inhibition of ADP-induced platelet aggregation in New Zealand White rabbit; format: functional, cell-based; details: Oryctolagus cuniculus
[3] = biological target: T1, Nitric oxide synthase, inducible (Mus musculus, UniProt P29477); test: Inhibition of mouse iNOS in RAW264.7 cells; format: cell-based
T1 sequence (P29477 whole entry): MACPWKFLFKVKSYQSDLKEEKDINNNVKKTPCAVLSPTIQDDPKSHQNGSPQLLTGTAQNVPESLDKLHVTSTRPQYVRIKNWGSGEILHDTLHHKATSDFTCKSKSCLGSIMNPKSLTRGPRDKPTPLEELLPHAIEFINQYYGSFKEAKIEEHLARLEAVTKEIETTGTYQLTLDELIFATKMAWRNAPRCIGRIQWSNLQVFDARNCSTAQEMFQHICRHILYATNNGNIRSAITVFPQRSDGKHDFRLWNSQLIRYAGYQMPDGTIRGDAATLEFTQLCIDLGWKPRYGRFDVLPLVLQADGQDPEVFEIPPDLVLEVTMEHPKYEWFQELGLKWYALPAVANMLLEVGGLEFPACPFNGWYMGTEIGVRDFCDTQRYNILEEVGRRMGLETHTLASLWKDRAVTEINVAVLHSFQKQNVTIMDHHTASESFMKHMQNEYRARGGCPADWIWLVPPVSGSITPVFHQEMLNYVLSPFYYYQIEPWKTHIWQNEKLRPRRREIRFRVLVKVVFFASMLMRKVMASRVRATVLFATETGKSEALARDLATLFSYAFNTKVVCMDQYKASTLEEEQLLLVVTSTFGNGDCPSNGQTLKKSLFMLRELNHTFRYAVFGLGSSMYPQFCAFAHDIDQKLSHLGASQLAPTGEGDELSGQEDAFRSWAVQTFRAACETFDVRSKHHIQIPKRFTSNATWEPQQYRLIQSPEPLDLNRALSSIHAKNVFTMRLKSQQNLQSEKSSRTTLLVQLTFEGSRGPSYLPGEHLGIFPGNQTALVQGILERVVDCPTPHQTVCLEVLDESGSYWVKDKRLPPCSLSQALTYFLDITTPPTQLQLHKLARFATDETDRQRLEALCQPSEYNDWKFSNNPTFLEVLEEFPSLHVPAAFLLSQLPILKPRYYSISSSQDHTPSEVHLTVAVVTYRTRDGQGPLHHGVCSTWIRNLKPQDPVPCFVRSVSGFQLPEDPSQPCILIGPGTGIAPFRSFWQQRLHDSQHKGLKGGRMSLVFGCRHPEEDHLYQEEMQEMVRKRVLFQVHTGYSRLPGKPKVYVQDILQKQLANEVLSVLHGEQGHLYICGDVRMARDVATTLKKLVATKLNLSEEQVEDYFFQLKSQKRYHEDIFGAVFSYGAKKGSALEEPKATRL

[4] = biological target: T2, Nitric oxide synthase 3 (Homo sapiens, UniProt P29474); test: Inhibition of human Endothelial cells eNOS; format: cell-based, Endothelial cell
T2 sequence (P29474 whole entry): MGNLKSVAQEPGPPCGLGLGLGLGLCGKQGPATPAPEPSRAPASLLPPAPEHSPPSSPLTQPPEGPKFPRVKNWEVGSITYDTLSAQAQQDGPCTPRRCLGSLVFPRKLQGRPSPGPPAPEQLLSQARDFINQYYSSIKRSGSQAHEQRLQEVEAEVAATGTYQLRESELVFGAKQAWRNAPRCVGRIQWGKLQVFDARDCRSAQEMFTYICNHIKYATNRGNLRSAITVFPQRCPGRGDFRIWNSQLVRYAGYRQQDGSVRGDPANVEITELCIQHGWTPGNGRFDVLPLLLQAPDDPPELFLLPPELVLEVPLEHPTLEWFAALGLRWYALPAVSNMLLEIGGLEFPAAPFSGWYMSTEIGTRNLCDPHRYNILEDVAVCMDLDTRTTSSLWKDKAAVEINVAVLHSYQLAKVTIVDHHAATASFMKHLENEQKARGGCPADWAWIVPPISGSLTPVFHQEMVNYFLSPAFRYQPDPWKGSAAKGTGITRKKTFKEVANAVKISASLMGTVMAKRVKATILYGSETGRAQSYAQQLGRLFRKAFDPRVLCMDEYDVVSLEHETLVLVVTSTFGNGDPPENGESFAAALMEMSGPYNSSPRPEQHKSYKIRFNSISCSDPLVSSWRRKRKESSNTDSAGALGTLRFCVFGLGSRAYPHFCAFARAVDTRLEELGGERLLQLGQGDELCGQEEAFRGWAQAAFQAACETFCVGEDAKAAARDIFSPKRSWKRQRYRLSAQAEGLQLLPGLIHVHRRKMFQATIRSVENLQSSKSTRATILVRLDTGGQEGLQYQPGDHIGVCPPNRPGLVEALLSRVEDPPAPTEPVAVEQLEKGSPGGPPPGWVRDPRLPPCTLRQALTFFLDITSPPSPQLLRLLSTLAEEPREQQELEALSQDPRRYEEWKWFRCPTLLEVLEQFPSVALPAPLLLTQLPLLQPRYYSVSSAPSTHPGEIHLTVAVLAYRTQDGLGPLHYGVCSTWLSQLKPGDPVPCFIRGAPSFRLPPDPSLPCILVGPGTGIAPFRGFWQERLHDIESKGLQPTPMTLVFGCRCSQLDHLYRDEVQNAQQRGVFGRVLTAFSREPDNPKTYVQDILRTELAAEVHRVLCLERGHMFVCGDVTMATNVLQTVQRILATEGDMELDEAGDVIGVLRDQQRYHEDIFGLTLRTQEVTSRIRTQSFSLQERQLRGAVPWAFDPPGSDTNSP

[5] = biological target: Nitric oxide synthase 1 (Rattus norvegicus, UniProt P29476); test: Inhibition of rat cerebellum nNOS; format: tissue-based
[6] = Neuroprotective activity in rat hippocampal neuron cells assessed as NMDA-induced cGMP production; format: functional, cell-based; details: Hippocampal neurone
[7] = Water solubility at pH 7.4; format: physicochemical
[8] = system: Platelet; test: Inhibition of ADP-induced platelet aggregation (unknown origin); format: functional, cell-based
[9] = Inhibition of NOS (unknown origin); parameters: species or system Homo sapiens
[10] = biological target: Nitric oxide synthase, inducible (Rattus norvegicus, UniProt Q06518); test: Inhibition of rat iNOS
[11] = biological target: Nitric oxide synthase 1 (Mus musculus, UniProt Q9Z0J4); test: Inhibition of mouse nNOS
[12] = biological target: T3, Nitric oxide synthase 3 (Bos taurus, UniProt P29473); test: Inhibition of bovine eNOS
T3 sequence (P29473 whole entry): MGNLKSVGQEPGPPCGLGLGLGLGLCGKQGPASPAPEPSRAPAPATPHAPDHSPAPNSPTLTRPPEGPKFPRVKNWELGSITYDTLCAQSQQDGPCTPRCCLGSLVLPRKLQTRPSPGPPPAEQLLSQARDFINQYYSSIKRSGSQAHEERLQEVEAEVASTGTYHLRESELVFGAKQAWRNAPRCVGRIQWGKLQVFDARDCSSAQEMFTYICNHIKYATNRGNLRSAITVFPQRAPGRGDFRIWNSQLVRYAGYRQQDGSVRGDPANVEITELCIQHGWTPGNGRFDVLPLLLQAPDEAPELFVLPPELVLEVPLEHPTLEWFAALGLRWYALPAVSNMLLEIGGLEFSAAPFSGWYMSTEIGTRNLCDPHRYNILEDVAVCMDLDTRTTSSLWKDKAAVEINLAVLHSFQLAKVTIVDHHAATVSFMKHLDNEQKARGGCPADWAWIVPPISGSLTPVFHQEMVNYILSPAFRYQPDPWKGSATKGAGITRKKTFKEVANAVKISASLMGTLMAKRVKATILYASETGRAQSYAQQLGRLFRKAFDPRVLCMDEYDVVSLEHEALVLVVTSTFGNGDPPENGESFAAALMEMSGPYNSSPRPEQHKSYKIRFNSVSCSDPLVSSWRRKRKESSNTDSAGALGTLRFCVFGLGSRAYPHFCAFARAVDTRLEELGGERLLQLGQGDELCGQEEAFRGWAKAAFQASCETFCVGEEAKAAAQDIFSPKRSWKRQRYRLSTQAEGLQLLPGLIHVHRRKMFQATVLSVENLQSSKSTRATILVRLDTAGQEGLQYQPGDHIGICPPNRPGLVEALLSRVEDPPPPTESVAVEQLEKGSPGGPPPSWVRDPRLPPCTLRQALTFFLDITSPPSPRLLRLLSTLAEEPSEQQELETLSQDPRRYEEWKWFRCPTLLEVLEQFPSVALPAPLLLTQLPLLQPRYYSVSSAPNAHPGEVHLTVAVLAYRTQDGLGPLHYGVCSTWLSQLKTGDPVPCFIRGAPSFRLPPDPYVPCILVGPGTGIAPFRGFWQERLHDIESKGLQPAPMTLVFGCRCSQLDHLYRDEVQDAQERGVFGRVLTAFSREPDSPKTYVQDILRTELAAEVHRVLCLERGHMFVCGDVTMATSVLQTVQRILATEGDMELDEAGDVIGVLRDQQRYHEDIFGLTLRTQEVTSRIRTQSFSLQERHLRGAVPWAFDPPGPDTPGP

[13] = biological target: T4, Nitric oxide synthase 1 (Homo sapiens, UniProt P29475); test: Binding affinity to GST-tagged nNOS (unknown origin) expressed in Escherichia coli BL21 (DE3) assessed as change in enthalpy
[14] = Permeability of the compound across blood brain barrier at pH 7.4 at 12.5 uM incubated for 4 hrs by PAMPA assay; format: ADME; details: read-out: permeability
[15] = biological target: Nitric oxide synthase, inducible (Homo sapiens, UniProt P35228); test: Binding affinity to iNOS (unknown origin) assessed as inhibition constant
[16] = biological target: T4, Nitric oxide synthase 1; test: Binding affinity to nNOS (unknown origin) assessed as inhibition constant
[17] = biological target: T2, Nitric oxide synthase 3; test: Binding affinity to eNOS (unknown origin) assessed as inhibition constant

T4 sequence (P29475 whole entry): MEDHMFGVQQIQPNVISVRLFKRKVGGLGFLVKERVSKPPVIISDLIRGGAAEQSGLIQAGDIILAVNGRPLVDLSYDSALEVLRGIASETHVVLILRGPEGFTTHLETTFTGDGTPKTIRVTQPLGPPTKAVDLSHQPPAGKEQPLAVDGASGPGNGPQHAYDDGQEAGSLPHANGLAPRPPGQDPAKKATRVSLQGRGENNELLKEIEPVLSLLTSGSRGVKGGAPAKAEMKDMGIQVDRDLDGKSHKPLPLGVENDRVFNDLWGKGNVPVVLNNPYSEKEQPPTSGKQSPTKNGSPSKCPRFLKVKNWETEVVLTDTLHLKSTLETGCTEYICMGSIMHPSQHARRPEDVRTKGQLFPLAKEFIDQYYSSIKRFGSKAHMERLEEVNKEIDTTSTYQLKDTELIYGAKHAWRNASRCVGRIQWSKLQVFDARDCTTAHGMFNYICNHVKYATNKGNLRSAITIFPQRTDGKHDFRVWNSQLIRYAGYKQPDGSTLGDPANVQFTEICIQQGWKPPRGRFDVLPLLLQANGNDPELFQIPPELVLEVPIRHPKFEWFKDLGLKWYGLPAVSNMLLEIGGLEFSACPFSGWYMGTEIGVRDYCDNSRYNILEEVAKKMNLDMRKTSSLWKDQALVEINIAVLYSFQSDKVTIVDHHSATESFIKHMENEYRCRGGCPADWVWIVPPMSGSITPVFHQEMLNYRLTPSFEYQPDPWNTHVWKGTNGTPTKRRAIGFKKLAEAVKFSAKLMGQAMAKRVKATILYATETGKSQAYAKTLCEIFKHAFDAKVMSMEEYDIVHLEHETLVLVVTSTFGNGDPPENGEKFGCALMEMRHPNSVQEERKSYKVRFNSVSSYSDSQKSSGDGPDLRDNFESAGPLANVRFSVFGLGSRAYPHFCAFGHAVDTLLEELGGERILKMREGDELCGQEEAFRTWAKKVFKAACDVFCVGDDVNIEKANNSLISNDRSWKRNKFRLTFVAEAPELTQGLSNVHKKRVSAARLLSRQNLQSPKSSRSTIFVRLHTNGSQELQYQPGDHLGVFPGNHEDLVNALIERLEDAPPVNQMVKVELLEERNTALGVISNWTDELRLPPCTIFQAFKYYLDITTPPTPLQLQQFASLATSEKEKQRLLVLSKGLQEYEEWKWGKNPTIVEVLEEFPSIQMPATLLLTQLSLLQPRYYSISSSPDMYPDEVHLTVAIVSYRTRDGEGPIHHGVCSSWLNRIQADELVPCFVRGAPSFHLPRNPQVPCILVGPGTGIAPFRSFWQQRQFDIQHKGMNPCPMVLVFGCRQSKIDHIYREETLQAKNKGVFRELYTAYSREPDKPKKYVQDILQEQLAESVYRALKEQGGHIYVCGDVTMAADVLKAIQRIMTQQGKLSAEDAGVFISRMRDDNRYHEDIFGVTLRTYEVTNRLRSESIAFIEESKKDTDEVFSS
Sequence of Nitric oxide synthase 1 (Rattus norvegicus, UniProt P29476) (P29476 whole entry): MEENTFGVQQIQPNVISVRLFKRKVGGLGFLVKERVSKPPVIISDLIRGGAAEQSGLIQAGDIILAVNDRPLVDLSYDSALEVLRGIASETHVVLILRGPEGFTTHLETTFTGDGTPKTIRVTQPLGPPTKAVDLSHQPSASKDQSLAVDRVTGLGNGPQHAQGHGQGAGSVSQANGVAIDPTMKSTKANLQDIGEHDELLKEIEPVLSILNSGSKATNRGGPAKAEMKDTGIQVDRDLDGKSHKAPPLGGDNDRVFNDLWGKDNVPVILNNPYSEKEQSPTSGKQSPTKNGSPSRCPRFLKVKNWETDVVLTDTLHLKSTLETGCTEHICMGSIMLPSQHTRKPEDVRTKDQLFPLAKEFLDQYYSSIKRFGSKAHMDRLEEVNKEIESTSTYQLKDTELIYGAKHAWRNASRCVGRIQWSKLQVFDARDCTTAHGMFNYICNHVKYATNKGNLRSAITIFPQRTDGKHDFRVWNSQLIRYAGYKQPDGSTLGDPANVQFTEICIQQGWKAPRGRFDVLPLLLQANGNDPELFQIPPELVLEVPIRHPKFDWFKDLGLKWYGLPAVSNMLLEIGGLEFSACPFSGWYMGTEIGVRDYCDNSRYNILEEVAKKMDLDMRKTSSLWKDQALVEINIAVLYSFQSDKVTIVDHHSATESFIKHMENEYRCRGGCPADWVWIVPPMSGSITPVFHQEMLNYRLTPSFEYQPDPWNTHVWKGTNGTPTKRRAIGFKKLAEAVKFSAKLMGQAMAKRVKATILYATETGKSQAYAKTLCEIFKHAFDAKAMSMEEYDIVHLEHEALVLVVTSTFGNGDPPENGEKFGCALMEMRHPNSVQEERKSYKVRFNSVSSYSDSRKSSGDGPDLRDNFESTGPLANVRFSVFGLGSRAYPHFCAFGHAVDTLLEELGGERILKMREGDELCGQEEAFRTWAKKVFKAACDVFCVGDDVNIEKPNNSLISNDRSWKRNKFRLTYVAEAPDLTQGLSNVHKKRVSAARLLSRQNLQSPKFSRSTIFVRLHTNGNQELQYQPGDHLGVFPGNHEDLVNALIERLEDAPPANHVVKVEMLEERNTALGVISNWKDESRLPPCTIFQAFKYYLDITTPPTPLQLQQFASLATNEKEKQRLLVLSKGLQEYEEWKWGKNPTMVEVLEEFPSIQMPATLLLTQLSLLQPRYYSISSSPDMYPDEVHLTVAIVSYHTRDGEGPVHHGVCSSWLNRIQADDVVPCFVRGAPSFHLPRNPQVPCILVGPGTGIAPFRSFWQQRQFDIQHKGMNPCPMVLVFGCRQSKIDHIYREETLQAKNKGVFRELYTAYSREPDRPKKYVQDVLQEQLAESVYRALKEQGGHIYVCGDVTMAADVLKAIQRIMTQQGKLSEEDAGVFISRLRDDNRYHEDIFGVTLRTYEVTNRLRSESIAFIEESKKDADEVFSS
Sequence of Nitric oxide synthase, inducible (Homo sapiens, UniProt P35228) (P35228 whole entry): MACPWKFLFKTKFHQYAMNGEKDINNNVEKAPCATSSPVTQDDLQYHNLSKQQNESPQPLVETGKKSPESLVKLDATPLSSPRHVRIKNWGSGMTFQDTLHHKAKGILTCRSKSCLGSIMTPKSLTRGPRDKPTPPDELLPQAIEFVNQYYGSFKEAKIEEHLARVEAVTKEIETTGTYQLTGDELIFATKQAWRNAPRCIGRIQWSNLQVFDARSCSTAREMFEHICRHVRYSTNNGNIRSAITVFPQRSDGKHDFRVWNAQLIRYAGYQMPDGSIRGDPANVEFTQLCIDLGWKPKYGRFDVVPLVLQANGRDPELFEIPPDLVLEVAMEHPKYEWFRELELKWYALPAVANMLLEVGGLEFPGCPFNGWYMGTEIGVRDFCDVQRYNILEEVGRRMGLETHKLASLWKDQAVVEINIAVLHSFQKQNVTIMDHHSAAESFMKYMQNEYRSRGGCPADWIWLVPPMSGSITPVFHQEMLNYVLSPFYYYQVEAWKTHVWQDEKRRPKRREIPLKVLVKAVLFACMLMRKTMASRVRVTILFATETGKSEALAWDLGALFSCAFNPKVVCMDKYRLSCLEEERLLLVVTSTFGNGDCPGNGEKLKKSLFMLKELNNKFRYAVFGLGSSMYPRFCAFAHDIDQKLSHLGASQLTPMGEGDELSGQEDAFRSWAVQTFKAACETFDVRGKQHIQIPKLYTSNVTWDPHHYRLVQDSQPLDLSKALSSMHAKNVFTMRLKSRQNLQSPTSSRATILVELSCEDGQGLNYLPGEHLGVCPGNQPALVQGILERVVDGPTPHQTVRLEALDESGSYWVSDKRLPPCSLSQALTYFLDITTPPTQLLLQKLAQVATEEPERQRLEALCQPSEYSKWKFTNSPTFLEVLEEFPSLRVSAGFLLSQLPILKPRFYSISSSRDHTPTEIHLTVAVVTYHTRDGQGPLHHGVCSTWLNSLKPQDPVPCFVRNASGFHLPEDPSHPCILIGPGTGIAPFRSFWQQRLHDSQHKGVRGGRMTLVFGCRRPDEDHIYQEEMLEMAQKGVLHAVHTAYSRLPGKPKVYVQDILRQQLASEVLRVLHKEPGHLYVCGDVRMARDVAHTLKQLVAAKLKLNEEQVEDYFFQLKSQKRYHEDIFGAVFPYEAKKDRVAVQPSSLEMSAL

SMILES: Cc1nc(C)c(COC(=O)c2cccc(OCCCCO[N+](=O)[O-])c2)nc1C
- pIC50 [1]: 6.25
- pIC50 [2]: 6.13

SMILES: CN1CCc2ccc(NC(=N)c3cccs3)cc2C1
- pIC50 [3]: 5.30
- pIC50 [4]: 4.62
- pIC50 [5]: 7.10

SMILES: Oc1c(Cl)cc(Cl)cc1CNc1ccc2nn[nH]c2c1
- pIC50 [6]: 5.57

SMILES: N=C(Nc1ccc2c(c1)CNCC2)c1cccs1
- pIC50 [3]: 5.26
- pIC50 [4]: 5.00
- pIC50 [5]: 7.30

SMILES: CCCCC(OC(C)=O)c1ccccc1C(=O)O[C@H]1CO[C@H]2[C@@H]1OC[C@H]2OC(=O)NCCO[N+](=O)[O-] (stereo partly specified)
- solubility [7]: 2.13 µM (≈ 1.09 µg/mL)
- pIC50 [8]: 6.36

SMILES: O=[N+]([O-])c1cccc2cn[nH]c12 [7-NITROINDAZOLE]
- pIC50 [9]: 6.15

SMILES: FC(F)(F)c1ccccc1-n1ccnc1
- pIC50 [10]: 4.57
- pIC50 [11]: 4.55
- pIC50 [12]: 2.98

SMILES: COC(=O)C[C@H](NC(=O)[C@@H](C)NCCC1CCCCC1)C(=O)N[C@H](C)C(=O)N[C@@H](C(=O)O)C(C)C
- deltaH [13]: -1.67 kcal/mol
- Papp at 4 h, 12.5 µM [14]: 6.07 ×10⁻⁶ cm/s

SMILES: COC(=O)[C@@H](N)CCCNC(=N)N[N+](=O)[O-] [L-NAME]
- pIC50 [9]: 4.15

SMILES: N=C(N)NN [PIMAGEDINE]
- pKi [15]: 4.80
- pKi [16]: 3.08
- pKi [17]: < 2.10
